ChEMBL document CHEMBL3525970, “Glutaredoxin and thioredoxin can be involved in producing the pharmacologically active metabolite of a thienopyridine antiplatelet agent, prasugrel” (Drug Metab Dispos, 2011)

What was measured:
Liver microsome = assay: Drug metabolism in human liver microsomes treated with R-133490 at 1 uM after 1 to 10 mins by LC-MS/MS analysis in presence of human liver cytosol and glutathione; format: ADME
Liver cytosol = assay: Drug metabolism in human liver cytosol treated with R-133490 at […] 0.05 mM after 5 mins by HPLC analysis in presence of dithiothreitol and 67 ug/ml anti-human thioredoxin antibody; format: ADME; details: 50 µM
[1] = Drug metabolism in potassium phosphate buffer treated with R-133490 at 1 uM after 1 to 10 mins by LC-MS/MS analysis; format: physicochemical
[2] = Drug metabolism in potassium phosphate buffer treated with R-133490 at 1 uM after 1 to 10 mins by LC-MS/MS analysis in presence of human liver cytosol and glutathione; format: physicochemical

Drug metabolism (Liver microsome): metabolite_detected
Drug metabolism (Liver cytosol): metabolite_detected
Drug metabolism [1]: metabolite_detected
Drug metabolism [2]: metabolite_detected
Structure (SMILES): O=C(O)/C=C1/CN(C(C(=O)C2CC2)c2ccccc2F)CCC1S (centres undefined) [R-138727]
